Test results taken from patent US12263248B2, “Compounds and compositions for intracellular delivery of therapeutic agents” (ModernaTX, Inc., priority 2018, dated 2025).
Values belong to the compound of their own block, whether it stands above or below them.

How the values were obtained:
[1] = Apparent (surface) pKa of the LNP formulation (TNS assay); format: physicochemical
In short: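 Fluorescence of TNS probe added to LNP samples (mRNA 0.04 mg/mL) was read across 21 buffers of pH about 3-12, triplicate per pH. The inflection point of the sigmoidal fluorescence-vs-pH curve, […], gives apparent pKa; method validated in 1× PBS and Tris/sucrose buffer.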

[2] = test system: luciferase (Luc) mRNA; assay: Luc expression in liver, lung, spleen and femur 6 hours after intravenous administration; format: in vivo; settings: mice, 0.5 mpk
In short: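 LNP-formulated mRNA given IV to mice (n=3) at 0.5 mpk; at 6 h, bioluminescence imaged ex vivo 15 min after IP D-luciferin (15 mg/mL, 200 μL), organs imaged within 25 min. Values are total flux by region of interest.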

[3] = Particle size and polydispersity index of nanoparticle compositions (Zetasizer Nano ZS); format: physicochemical
In short: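 Zetasizer Nano ZS; samples in 1×PBS; read-out: particle size plus polydispersity index.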

[4] = test system: IL-6, IP-10; assay: Cytokine induction in mice upon intravenous administration; format: in vivo; set-up: Cytokine induction IL-6 / Cytokine induction IP-10: unit not given here; settings: intravenous, 0.5 mpk, 6 hours
From the text: The introduction of foreign material into a mammalian body induces an innate immune response that promotes cytokine production. Such immune responses to, for example, nanoparticle compositions including therapeutic and/or prophylactics, are undesirable. The induction of certain cytokines is thus measured to evaluate the […] of nanoparticle compositions. The concentrations of various cytokines in mice upon intravenous administration of nanoparticle compositions presented in Table 1A at a dosage of 0.5 mpk was measured at 6 hours. The standard MC3 formulation and a PBS control were also tested. As is evident in Table 7, IL-6 induction was highest for compositions including Compounds 1, 3, 9, 19, and 26, while IP-10 induction was highest for compositions including Compounds 3, 4, 7, 20, and 26. IL-6 induction was lowest for compositions including Compounds 4, 11, 12, and 28. IP-10 induction was lowest for compositions including Compounds 10, 11, 12, 13, 15, 17, and 18.

[5] = Encapsulation efficiency of RNA (QUANT-IT RIBOGREEN RNA assay); format: physicochemical; settings: for EE (%): Table 1A
In short: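 RiboGreen fluorescence (ex ~480, em ~520 nm) compared between intact samples and Triton X-100-lysed samples after 15 min at 37 °C in TE buffer, pH 7.5. Percent free RNA is the blank-corrected intact/disrupted ratio.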

[6] = test system: luciferase (Luc) mRNA; assay: Luc expression, whole body bioluminescence after intravenous administration to mice; format: in vivo; settings: for Total Flux 3 hours / Total Flux 6 hours / Total Flux 24 hours: i.v., 0.5 mg/kg, Luc mRNA
In short: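 Bioluminescence, read as region-of-interest total flux at 3, 6 and 24 h, followed a single 0.5 mg/kg intravenous dose of Luc mRNA-loaded nanoparticles in mice (n=6). Luciferin substrate (200 μL, 15 mg/mL in PBS) was injected intraperitoneally into CD-1 mice 15 minutes ahead of each imaging point.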

[7] = Chemical stability of lipids in ethanol (lipid purity); format: physicochemical
Procedure: Ester linkages were previously reported to trigger metabolism by esterases in vivo. (See Fukami, T. et al. Drug Metab. Pharmacokinet. 2012, 27, 466-477, the content of which is incorporated by reference herein in its entirety). […] (See Maier M. A., Mol. Ther. 2013, 21, 1570-1578, the content of which is incorporated herein in its entirety) First, the chemical stability of the lipids was evaluated by measuring ethanol stability at room temperature and 37° C. (Table 39). […] LNPs formed with compound 138 were larger, with a surface pKa>7. […] Removal of one ester function (compound 136) afforded LNPs with improved physiochemical characteristics and lower LNP surface pKa.

[8] = Lipid clearance: lipid level in mouse liver tissue (LC-MS/MS); format: in vivo; settings: Table 3D, intravenous
[9] = test system: hEPO mRNA; assay: hEPO expression after subcutaneous administration to mice; format: in vivo, female CD-1 mice; settings: 0.5 mpk
Procedure: The effect of the lipids of the disclosure on protein expression upon subcutaneous administration was studied. Formulations containing lipids of the disclosure and an mRNA expressing luciferase or hEPO were administered subcutaneously to female CD-1 mice at 0.5 mpk. Expression levels were obtained via whole body luminescent imaging (BLI) at 3, 6 and 24 hours after injection and expression levels in liver, spleen and at the injection site were evaluated ex vivo after 24 hours. […] See also Tables 35 and 36, and FIGS. 19 and 27.
Table 36 summarizes the hEPO expression levels using various nanoparticle compositions of the disclosure as compared to the hEPO expression level using a formulation containing MC3 or Compound 18, following subcutaneous administration, as described above.

[10] = lipid nanoparticle, ±SD within one assay run (Table 37)
[11] = Table 1A, lipid:DSPC:cholesterol:PEG-DMG 50:10:38.5:1.5 mol %
[12] = Table 1D, for subcutaneous administration, # formulated with hEPO mRNA

pKa ([1]; Table 1A): 6.58 | pKa [1, 10]: 6.58 ± 0.11 | PDI ([3]; Table 1A): 0.15 | Size (nm) [3, 11]: 130.1 nm | PDI (Polydispersity index) [3, 10]: 0.15 ± 0.07 | Size [3, 10]: 130.1 ± 3.5 nm | Cytokine induction IL-6 [4]: 75.29 | Cytokine induction IP-10 [4]: 621.49 | EE (%) [5]: 95.24% | % Encapsulation [5, 10]: 95.2 ± 0.5% | Lipid Purity ([7]; t = 0): 92.08% | Lipid Purity ([7]; t = 96 h, 25° C.): 92.07% | Lipid Purity ([7]; t = 96 h, 37° C.): 91.90%
SMILES: CCCCCCCCCOC(=O)CCCCCCCN(CCCCCCCC(=O)OC(CCCCCCCC)CCCCCCCC)CCN(C)C [Compound 14, Heptadecan-9-yl 8-((2-(dimethylamino)ethyl)(8-(nonyloxy)-8-oxooctyl)amino)octanoate]
Total Flux Femur ([2]; intravenous, femur): 4.91E+06 | Total Flux Liver ([2]; intravenous): 1.91E+08 | Total Flux Lung ([2]; intravenous): 4.74E+06 | Total Flux Spleen ([2]; intravenous): 1.92E+08 | Total Flux 3 hours ([6]; mice): 4.43E+08 | Total Flux 6 hours ([6]; mice): 2.29E+09 | Total Flux 24 hours ([6]; mice): 1.39E+08 | luciferase activity relative to MC3 LNP control ([6]; mice, intravenous, 0.5 mg/kg (mRNA dose)): complete loss of delivery efficiency

pKa ([1]; Table 1A): 6.600 | PDI ([3]; Table 1A): 0.160 | Size (nm) [3, 11]: 120.5 nm | PDI [3, 12]: 0.14 | Size (nm) [3, 12]: 82.6 nm | % Dose Remaining in Liver 6 h ([8]; second column (head also says 6 h)): <1% | % Dose Remaining in Liver 6 h [8]: <1% | EE (%) [5]: 79.04% | % EE [5, 12]: 94.4%
SMILES: CCCCCCCCCC(=O)OCCCCCCCN(CCO)CCCCCCCC(=O)OC(CCCCCCCC)CCCCCCCC [Compound 96, 7-((8-(Heptadecan-9-yloxy)-8-oxooctyl)(2-hydroxyethyl)amino)heptyl decanoate]
Flux in the liver ([2]; i.v., in words): highest | Total Flux Liver ([2]; intravenous): 1.56E+10 | Total Flux Lung ([2]; intravenous): 3.43E+07 | Total Flux Spleen ([2]; intravenous): 3.39E+08 | hEPO expression Lipid/Compound 18 ratio, 6 hr. ([9]; 6 hr.): 1.98 | hEPO expression Lipid/Compound 18 ratio, AUC ([9]; AUC): 1.72 | Lipid/MC3 AUC ([6]; Table 3D, intravenous): 6.3 | AUC (p/s * h) ([6]; Table 3D, intravenous, Luc): 1.209E+012 p/s * h | Novel lipid/MC3 ratio, 6 hr. timepoint, i.v. ([6]; luciferase, intravenous, relative to MC3, Table 3G): 6.11 | Total Flux 3 hours ([6]; mice): 4.54E+10 | Total Flux 6 hours ([6]; mice): 1.05E+11 | Total Flux 24 hours ([6]; mice): 3.86E+09
